Laboratory results taken from patent US20240293511A1, “HEPCIDIN MIMETICS FOR TREATMENT OF HEREDITARY HEMOCHROMATOSIS” (Protagonist Therapeutics, Inc., priority 2021, published 2024).

Tested on: HH patients
Assay: Phase 2 open-label dose-finding study in hereditary hemochromatosis patients
Type: in vivo, human
Description: A clinical efficacy study was conducted in HH patients. Subjects received subcutaneous Compound 25 for up to 24 weeks. Subjects were started at an initial dose of 10 mg per week subcutaneously. The dose was increased to 20 mg per week, and subsequently to 40 mg and to 80 mg per week as needed, based on tolerability and the pharmacodynamic marker TSAT. In addition, subcutaneous dosing schedules of 10 mg, 20 mg, 30, and 40 mg twice weekly (Day 1 and either Day 4 or Day 5 were tested). The majority of patients were administered doses of 20 mg per week or less. Subjects' safety and blood iron parameters (serum iron, serum ferritin, transferrin, and TSAT) were collected to monitor the pharmacodynamic effect of Compound 25. Effects on phlebotomy need and QoL data (36-Item Short Form Health Survey [SF-36], and Patient's Global Impression of Change [PGI-C]) were also be collected and tabulated.
Individual subject's dose and schedule were determined based on the pharmacodynamic (PD) marker TSAT measured at two time points following dosing: once at peak PD effect one day post dose and once at trough PD effect. […] The trough PD effect was the TSAT value measured 7 days after the Compound 25 dose (and before the next dose) for once weekly dosing or 7 days after the first dose in a week for twice weekly dosing. […] To facilitate dose escalation and the identification of a therapeutic dose, investigators assessed TSAT values on days subjects came to the clinic for any dose adjustments.
Methods: This single-arm, open-label, dose-finding phase 2 study investigated subcutaneous hepcidin mimetic (Compound 25) in patients (pts) with confirmed HH who were on documented stable phlebotomies (phl) for at least 6 months (mos) prior to treatment with a phl frequency of 0.25-1 per month. […] Endpoints included TSAT, serum iron, serum transferrin and serum ferritin, liver iron content (LIC) measured by FerriScan MRI, adverse events, and patient-reported outcomes on the Patient Global Impression of change (PGI-C) and Medical Outcome Study Questionnaire Short Form Health Survey (SF-36). […]

CCCCCCCCCCCCCCCC(=O)N[C@@H](CCC(=O)NCCCC[C@@H]1NC(=O)[C@H]([C@@H](C)CC)NC(=O)[C@@H](NC(=O)[C@@H]2CCCN2C(=O)[C@H](Cc2ccccc2)NC(=O)[C@H](Cc2c[nH]cn2)NC(=O)[C@@H](NC(=O)[C@H](CC(=O)O)NC(=O)CC(C)C)[C@@H](C)O)CSSC[C@@H](C(=O)N[C@@H](CCCCN)C(N)=O)NC(=O)CNC(=O)[C@H](CCCCN)NC(=O)[C@H](CO)NC(=O)[C@H](CCCNC(=N)N)NC(=O)[C@@H]2CCCN2C(=O)[C@H](CCC(=O)O)NC(=O)[C@H](Cc2ccccc2)NC1=O)C(=O)O [Compound 25, Isovaleric acid-DTHFPCI(K(isoGlu-Palm))FEPRSKGCK-NH2]
tolerability (HH patients, subcutaneous, up to 24 weeks): generally well tolerated | treatment-related adverse events, severity (all treatment-related adverse events): CTCAE grade 1 or 2 | hematological parameters (hematocrit, erythrocytes, leucocytes, platelets) (human, in vivo): no notable changes
